# Results published in PubChem BioAssay AID1963870 (Molecular Pharmacology Branch, DTP, NCI, 2024).
# The source made the active and inactive calls. The calls were made as follows: active = viability on the fitted dose curve at most 10% of control; inactive = the rest.
# Test system: 292921-168-R-J2-PDC KRAS tumor spheroid viability
# Assay: Anticancer human tumor 292921-168-R-J2-PDC patient-derived pancreatic carcinoma cell line growth inhibition [KRAS2]
# Conditions: spheroids with HUVEC and MSC; for IC50: curve of first compound; for viability, T/C: stronger effect = lower value
# Procedure, shortened: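 Combination screen of spheroid viability in tumor-cell co-cultures with endothelial (HUVEC) and mesenchymal stem cell stroma. Each agent was tested in half-log dilutions, topping at clinical Cmax or at 10 microM without a known Cmax.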
# [1] = second compound 0.1 µM, first compound 0.0316 µM
# [2] = second compound 0.316 µM, first compound 0.0316 µM
# [3] = second compound 1 µM, first compound 0.0316 µM
# [4] = second compound 3.16 µM, first compound 0.0316 µM
# [5] = second compound 10 µM, first compound 0.0316 µM
# [6] = second compound 0.1 µM, first compound 0.1 µM
# [7] = second compound 0.1 µM, first compound 0.316 µM
# [8] = second compound 0.1 µM, first compound 1 µM
# [9] = second compound 0.1 µM, first compound 3.16 µM
# [10] = second compound 0.1 µM, first compound 10 µM
# [11] = second compound 0.316 µM, first compound 0.1 µM
# [12] = second compound 0.316 µM, first compound 0.316 µM
# [13] = second compound 0.316 µM, first compound 1 µM
# [14] = second compound 0.316 µM, first compound 3.16 µM
# [15] = second compound 0.316 µM, first compound 10 µM
# [16] = second compound 1 µM, first compound 0.1 µM
# [17] = second compound 1 µM, first compound 0.316 µM
# [18] = second compound 1 µM, first compound 1 µM
# [19] = second compound 1 µM, first compound 3.16 µM
# [20] = second compound 1 µM, first compound 10 µM
# [21] = second compound 3.16 µM, first compound 0.1 µM
# [22] = second compound 3.16 µM, first compound 0.316 µM
# [23] = second compound 3.16 µM, first compound 1 µM
# [24] = second compound 3.16 µM, first compound 3.16 µM
# [25] = second compound 3.16 µM, first compound 10 µM
# [26] = second compound 10 µM, first compound 0.1 µM
# [27] = second compound 10 µM, first compound 0.316 µM
# [28] = second compound 10 µM, first compound 1 µM
# [29] = second compound 10 µM, first compound 3.16 µM
# [30] = second compound 10 µM, first compound 10 µM
# 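For IC50 in this document: drug exposure lasted seven days after spheroids formed for three days.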
# 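For viability, T/C in this document: drug exposure lasted seven days after spheroids formed for three days; percent of DMSO vehicle control viability which is 100%.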
smiles,measurement,setting,value
CC(=O)Nc1cccc(-n2c(=O)n(C3CC3)c(=O)c3c(Nc4ccc(I)cc4F)n(C)c(=O)c(C)c32)c1 + CC1OCC2(CCN(c3cnc(Sc4ccnc(N)c4Cl)c(N)n3)CC2)C1N,IC50,second compound 0.1 µM,< 0.1 nM
same,IC50,second compound 0.316 µM,< 0.1 nM
same,IC50,second compound 1 µM,< 0.1 nM
same,IC50,second compound 3.16 µM,< 0.1 nM
same,IC50,second compound 10 µM,< 0.1 nM
same,"viability, T/C","second compound 0.1 µM, first compound 0.0001 µM",48.8%
same,"viability, T/C","second compound 0.1 µM, first compound 0.000316 µM",28.9%
same,"viability, T/C","second compound 0.1 µM, first compound 0.001 µM",18.2%
same,"viability, T/C","second compound 0.1 µM, first compound 0.00316 µM",14.6%
same,"viability, T/C","second compound 0.1 µM, first compound 0.01 µM",10.5%
same,"viability, T/C",[1],8.15%
same,"viability, T/C","second compound 0.316 µM, first compound 0.0001 µM",35.4%
same,"viability, T/C","second compound 0.316 µM, first compound 0.000316 µM",27.8%
same,"viability, T/C","second compound 0.316 µM, first compound 0.001 µM",15.6%
same,"viability, T/C","second compound 0.316 µM, first compound 0.00316 µM",11.9%
same,"viability, T/C","second compound 0.316 µM, first compound 0.01 µM",9.03%
same,"viability, T/C",[2],7.3%
same,"viability, T/C","second compound 1 µM, first compound 0.0001 µM",30.1%
same,"viability, T/C","second compound 1 µM, first compound 0.000316 µM",17.7%
same,"viability, T/C","second compound 1 µM, first compound 0.001 µM",13.1%
same,"viability, T/C","second compound 1 µM, first compound 0.00316 µM",9.44%
same,"viability, T/C","second compound 1 µM, first compound 0.01 µM",7.15%
same,"viability, T/C",[3],6.35%
same,"viability, T/C","second compound 3.16 µM, first compound 0.0001 µM",22.9%
same,"viability, T/C","second compound 3.16 µM, first compound 0.000316 µM",15.7%
same,"viability, T/C","second compound 3.16 µM, first compound 0.001 µM",11.9%
same,"viability, T/C","second compound 3.16 µM, first compound 0.00316 µM",8.12%
same,"viability, T/C","second compound 3.16 µM, first compound 0.01 µM",7.15%
same,"viability, T/C",[4],5.35%
same,"viability, T/C","second compound 10 µM, first compound 0.0001 µM",18.3%
same,"viability, T/C","second compound 10 µM, first compound 0.000316 µM",14.1%
same,"viability, T/C","second compound 10 µM, first compound 0.001 µM",9.59%
same,"viability, T/C","second compound 10 µM, first compound 0.00316 µM",7.02%
same,"viability, T/C","second compound 10 µM, first compound 0.01 µM",5.62%
same,"viability, T/C",[5],4.49%
COC(=O)c1ccc2c(C(=Nc3ccc(N(C)C(=O)CN4CCN(C)CC4)cc3)c3ccccc3)c(O)[nH]c2c1 + CC1OCC2(CCN(c3cnc(Sc4ccnc(N)c4Cl)c(N)n3)CC2)C1N,IC50,second compound 0.1 µM,217 nM
same,IC50,second compound 0.316 µM,241 nM
same,IC50,second compound 1 µM,< 31.6 nM
same,IC50,second compound 3.16 µM,105 nM
same,IC50,second compound 10 µM,105 nM
same,"viability, T/C",[1],71.4%
same,"viability, T/C",[6],57.7%
same,"viability, T/C",[7],48.3%
same,"viability, T/C",[8],24.8%
same,"viability, T/C",[9],12.3%
same,"viability, T/C",[10],0.41%
same,"viability, T/C",[2],76.8%
same,"viability, T/C",[11],63.1%
same,"viability, T/C",[12],46.1%
same,"viability, T/C",[13],26.6%
same,"viability, T/C",[14],9.27%
same,"viability, T/C",[15],0.34%
same,"viability, T/C",[3],48%
same,"viability, T/C",[16],44.3%
same,"viability, T/C",[17],37.6%
same,"viability, T/C",[18],19.3%
same,"viability, T/C",[19],10%
same,"viability, T/C",[20],0.37%
same,"viability, T/C",[4],60%
same,"viability, T/C",[21],51.8%
same,"viability, T/C",[22],34.5%
same,"viability, T/C",[23],17.9%
same,"viability, T/C",[24],9.11%
same,"viability, T/C",[25],0.37%
same,"viability, T/C",[5],58.2%
same,"viability, T/C",[26],50.3%
same,"viability, T/C",[27],34.6%
same,"viability, T/C",[28],17.4%
same,"viability, T/C",[29],1.12%
same,"viability, T/C",[30],0.57%
COc1cc(Nc2ncc3c(n2)-c2ccc(Cl)cc2C(c2c(F)cccc2OC)=NC3)ccc1C(=O)O + CC1OCC2(CCN(c3cnc(Sc4ccnc(N)c4Cl)c(N)n3)CC2)C1N,IC50,second compound 0.1 µM,< 31.6 nM
same,IC50,second compound 0.316 µM,< 31.6 nM
same,IC50,second compound 1 µM,< 31.6 nM
same,IC50,second compound 3.16 µM,< 31.6 nM
same,IC50,second compound 10 µM,< 31.6 nM
same,"viability, T/C",[1],22.8%
same,"viability, T/C",[6],21.9%
same,"viability, T/C",[7],22.8%
same,"viability, T/C",[8],22.3%
same,"viability, T/C",[9],17.3%
same,"viability, T/C",[10],14.1%
same,"viability, T/C",[2],21.1%
same,"viability, T/C",[11],18.9%
same,"viability, T/C",[12],22.8%
same,"viability, T/C",[13],19.9%
same,"viability, T/C",[14],16.8%
same,"viability, T/C",[15],10.6%
same,"viability, T/C",[3],18.3%
same,"viability, T/C",[16],15.5%
same,"viability, T/C",[17],18.5%
same,"viability, T/C",[18],15.5%
same,"viability, T/C",[19],13.6%
same,"viability, T/C",[20],10.8%
same,"viability, T/C",[4],18.1%
same,"viability, T/C",[21],16.4%
same,"viability, T/C",[22],16.9%
same,"viability, T/C",[23],14.9%
same,"viability, T/C",[24],12.8%
same,"viability, T/C",[25],10.2%
same,"viability, T/C",[5],16%
same,"viability, T/C",[26],16.7%
same,"viability, T/C",[27],16.1%
same,"viability, T/C",[28],15.7%
same,"viability, T/C",[29],14%
same,"viability, T/C",[30],10.3%
COc1cc2nccc(Oc3ccc(NC(=O)C4(C(=O)Nc5ccc(F)cc5)CC4)cc3)c2cc1OC + CC1OCC2(CCN(c3cnc(Sc4ccnc(N)c4Cl)c(N)n3)CC2)C1N,IC50,second compound 0.1 µM,1610 nM
same,IC50,second compound 0.316 µM,569 nM
same,IC50,second compound 1 µM,< 31.6 nM
same,IC50,second compound 3.16 µM,< 31.6 nM
same,IC50,second compound 10 µM,< 31.6 nM
same,"viability, T/C",[1],81%
same,"viability, T/C",[6],82.6%
same,"viability, T/C",[7],72%
same,"viability, T/C",[8],65.9%
same,"viability, T/C",[9],28.9%
same,"viability, T/C",[10],19%
same,"viability, T/C",[2],60.9%
same,"viability, T/C",[11],61.4%
same,"viability, T/C",[12],54.6%
same,"viability, T/C",[13],45.1%
same,"viability, T/C",[14],25.6%
same,"viability, T/C",[15],17.1%
same,"viability, T/C",[3],42.2%
same,"viability, T/C",[16],45.7%
same,"viability, T/C",[17],26.1%
same,"viability, T/C",[18],33%
same,"viability, T/C",[19],22.5%
same,"viability, T/C",[20],13%
same,"viability, T/C",[4],35.4%
same,"viability, T/C",[21],33.5%
same,"viability, T/C",[22],35.5%
same,"viability, T/C",[23],26.8%
same,"viability, T/C",[24],17.8%
same,"viability, T/C",[25],12%
same,"viability, T/C",[5],31.7%
same,"viability, T/C",[26],30.2%
same,"viability, T/C",[27],31.7%
same,"viability, T/C",[28],24.9%
same,"viability, T/C",[29],14.3%
same,"viability, T/C",[30],9.5%
O=C(c1cc(Cc2n[nH]c(=O)c3ccccc23)ccc1F)N1CCN(C(=O)C2CC2)CC1 + CC1OCC2(CCN(c3cnc(Sc4ccnc(N)c4Cl)c(N)n3)CC2)C1N,IC50,second compound 0.1 µM,7220 nM
same,IC50,second compound 0.316 µM,5520 nM
same,IC50,second compound 1 µM,8780 nM
same,IC50,second compound 3.16 µM,< 31.6 nM
same,IC50,second compound 10 µM,< 31.6 nM
same,"viability, T/C",[1],90.5%
same,"viability, T/C",[6],82.3%
same,"viability, T/C",[7],81.2%
same,"viability, T/C",[8],90.5%
same,"viability, T/C",[9],74.3%
same,"viability, T/C",[10],40.5%
same,"viability, T/C",[2],76.5%
same,"viability, T/C",[11],63.6%
same,"viability, T/C",[12],63.8%
same,"viability, T/C",[13],78%
same,"viability, T/C",[14],62.5%
same,"viability, T/C",[15],34.6%
same,"viability, T/C",[3],138%
same,"viability, T/C",[16],120%
same,"viability, T/C",[17],113%
same,"viability, T/C",[18],120%
same,"viability, T/C",[19],83.9%
same,"viability, T/C",[20],45.1%
same,"viability, T/C",[4],48%
same,"viability, T/C",[21],41.3%
same,"viability, T/C",[22],50.7%
same,"viability, T/C",[23],45.4%
same,"viability, T/C",[24],39.7%
same,"viability, T/C",[25],30.6%
same,"viability, T/C",[5],50.8%
same,"viability, T/C",[26],44.6%
same,outcome,[27],inactive
same,"viability, T/C",[28],38.6%
same,"viability, T/C",[29],34.4%
same,"viability, T/C",[30],27.6%
